Values after ≈ are worked out from the molar mass of the structure shown. Where two headings read alike, the source gives them in different places.

This is an account of results in US20170247409A1, “ABIETANE-TYPE DITERPENOIDS” (UNIVERSITY OF HELSINKI, priority 2014, published 2017).

For one data set, the system named is S. aureus Newman. Nature of the data set: Anti-biofilm potency against S. aureus Newman biofilms. To be noted: Staphylococcus aureus, S. aureus Newman. The class given is cell-based, Staphylococcus aureus. From the text:
In fact, only 2-3 fold-higher concentrations of the compounds were needed to kill existing biofilms, in comparison to inhibiting bacterial colonization. […] Anti-biofilm potencies were all in the micromolar range and they were particularly significant for compound 22. […] The activity was also confirmed against S. aureus Newman strain. Potency values calculated for the S. aureus Newman (Table 3) were very similar to the values registered for S. aureus ATCC 25923.

The subject of data set [1] is S. epidermidis ATCC 12228. The data set can be described thus: Anti-biofilm activity against S. epidermidis ATCC 12228. Particulars: tested at IC50 conc. measured against S. aureus ATCC 25923. The class given is cell-based, Staphylococcus epidermidis. Here is the method:
(§1) Four of the compounds were also tested against gram-negative E. coli biofilms as well as other Staphylococcal strains, at the corresponding IC50 values measured against S. aureus ATCC 25923 (Table 4). […] Nonetheless, all the compounds presented below were found active against S. epidermidis (ATCC 12228 and ATCC 35984) strains (Table 3).

Data set [2] concerns S. aureus ATCC 25923 biofilms. The data set can be described thus: Viable plate counts and Log Reduction of S. aureus ATCC 25923 biofilms. The class given is cell-based, Staphylococcus aureus. To be noted: 400 μM, viable plate counts. Here is the method: The viability of S. aureus (ATCC 25923) biofilms left upon exposure to compounds 20, 21, 22 and 25 was determined using viable plate counts and calculating the Log Reduction (Log R) value. This procedure involves scrapping the biofilms off the substrate, disaggregating them by sonication and plating the resulting suspension in agar. The method is highly laborious but it is the gold standard for the quantification of anti-biofilm efficacy (Pitts et al. 2003). […] Of note, a log R value of 2 represents a reduction of 99% of the viable cells in the biofilms, and typically, a log R of 3 is considered a relevant indicator of the compound efficacy as an anti-biofilm agent.

Data set [3] has as its system S. aureus ATCC 25923 biofilms. The data set can be described thus: Membrane depolarization in biofilms, DiBAC4(3) probe. The data set is classed as cell-based, Staphylococcus aureus. Particulars: 1 h exposure to the biofilms (FIG. 2B). From the text:
(§2) A: quantification of ATP release from the S. aureus ATCC 25923 biofilms using the BacTiter-Glo bioluminescent assay. B: quantification of membrane depolarization in treated biofilms by the potential-sensitive DiABC(4)3 probe; this probe can only enter depolarized cells, where it experienced an enhanced fluorescence signal upon binding to intracellular proteins. For statistical comparisons between the treated and untreated samples, an unpaired t-test with Welch's correction was used, using GraphPad Prism (v 5.0 for Mac OS X).
(§3) ATP release from the biofilms after 1 h exposure to compounds 22 and 25 at 100 μM was quantified on the culture media, using the BacTiter-Glo bioluminescent assay. […] ATP release can be often associated to membrane depolarization events. Here, such events were followed by the increase in fluorescence emission of the DiBAC4(3) probe, as in Okuda et al. (2013).

In data set [4] the test system is S. aureus ATCC 25923 biofilms. The data set can be described thus: Anti-biofilm viability assay with redox dye, pre- and post-exposure, S. aureus ATCC 25923 biofilms. Particulars: for IC50 / inhibition at 400 µM: S. aureus ATCC 25923; for inhibition at 400 µM: ATCC25923; for reduction of the viable biofilm cells: time-course on existing biofilms, within the first hour (FIG. 1). The class given is cell-based, Staphylococcus aureus.

Data set [5] relates to S. epidermidis ATCC 35984. Nature of the data set: Anti-biofilm activity against S. epidermidis ATCC 35984. The class given is cell-based, Staphylococcus epidermidis. To be noted: tested at IC50 conc. measured against S. aureus ATCC 25923. Here is the method: as §1
Data set [6] deals with S. aureus ATCC 25923 biofilms. Nature of the data set: ATP release from biofilms, BacTiter-Glo bioluminescent assay. The data set is classed as cell-based, Staphylococcus aureus. Particulars: 100 μM; 1 h exposure (FIG. 2A).
From the text: as §2, §3

The test system of the next data set is single-cell bacteria. The data set can be described thus: Antibacterial activity (MIC) against single-cell (planktonic) bacteria. The class given is cell-based. To be noted: Staphylococcus aureus, in the absence of biofilms, strain not stated. An excerpt: We selected six of the active compounds in the post-exposure assays namely, compounds 20, 21, 22, 25, 31 and 32 for the follow-up studies. […] In this mode of the assay, the interaction of the compounds occurs initially with single-cell bacteria (that is, a planktonic solution) before biofilms are formed. Therefore, we tested additionally if the compounds could exert antibacterial activity against single-cell bacteria, in the absence of biofilms. Based solely on conventional MIC and MBC values, antibacterial activities against single-cell bacteria were also high for the derivatives. […] The antibacterial activity order 22>21>25>31>20>32 correlated very well with the measured activity in preventing biofilm formation.

Data set [7] has as its system HL cells. Nature of the data set: Biocompatibility index (LC50 in HL cells / concentration causing 3-log reduction of planktonic bacteria). The class given is cell-based, human. Particulars: ratio LC50 (HL cells) / concentration causing 3-log reduction in planktonic bacterial burden. Here is the method:
Additionally, the biocompatibility index (BI) was calculated for compound 22, to assess the overall impact of its antimicrobial activity, using an adaptation of the equation described for antiseptics by Muller and Kramer, 2008. BI, as originally defined by these authors, is a dimensionless parameter resulting from the ratio of the in vitro cytotoxicity values (in this case, half-lethal concentrations, LC50) to the concentration of the compound causing a 3-log reduction in the viable counts of suspended bacteria. Compounds with BI<1 are deemed as less promising, due to their potential toxic effects. Thus BI is a very useful tool for the quick exclusion of undesired toxic scaffolds or weak hits in early stage of development of anti-biofilm molecules. For the determination of the BI, acute cytotoxicity of compound 22 was measured in the same cell line described earlier (HL cells), using the resazurin assay as in Karlsson et al, 2012. The ratio of the half lethal concentration (LC50) and the concentration causing 3-log reduction in the planktonic bacterial burden was calculated (both expressed in […]), as below:
The BI value of compound 22 was clearly higher than 1, which is indicative of an adequate combination of an effective anti-biofilm activity with a low cytotoxicity. It is thus expected that toxic effects can be minimized in the host organisms exposed to compound 22.

Another data set deals with E. coli XL1 blue. The data set can be described thus: Anti-biofilm activity against E. coli XL1 blue biofilms. The data set is classed as cell-based, Escherichia coli. Particulars: tested at IC50 conc. measured against S. aureus ATCC 25923. Here is the method:
as §1

For data set [8], the system named is HL cells. Nature of the data set: Tolerability of mammalian cells, resazurin viability assay. The data set is classed as cell-based, human. Particulars: 24 hours exposure, HL cells. Here is the method:
Viability values were measured in acute conditions (24 hours exposure) using the resazurin assay as in Karlsson et al, 2012 (Eur J Pharm Sci. 2012 Aug 30;47(1):190-205). […] The least tolerated molecule was 25, as only 23% (±5.9) of cells remained viable upon exposure to 100 μM. However, concentrations up to 30 μM caused no cytotoxicity (90.2% of viable cells, ±0.5).

The subject of the next data set is S. aureus biofilm. To be noted: Fallarero et al, 2013; cited from earlier work.
Where [9] appears, read: read-out: Potency, IC50 Post-biofilm formation.
The mark [10] stands for this setting: read-out: Potency, IC50 Prior-to-biofilm formation.
Setting [11] is: value in parentheses, read-out: Potency, IC50 Post-biofilm formation.
[12] abbreviates: value in parentheses, read-out: Potency, IC50 Prior-to-biofilm formation.
Setting [13] is: Staphylococcus aureus, ATCC25923, 50% inhibition of biofilm viability, read-out: Potency, IC50 Prior-to-biofilm formation.
The mark [14] stands for this setting: Staphylococcus aureus, ATCC25923, 50% inhibition of biofilm viability, value in parentheses, read-out: Potency, IC50 Prior-to-biofilm formation.
The mark [15] stands for this setting: Staphylococcus aureus, ATCC25923, 24 h, measured 24 hours after adding to existing biofilms, value in parentheses, read-out: Potency, IC50 Post-biofilm formation.
[16] abbreviates: Staphylococcus aureus, post-exposure, read-out: % Inhibition 400 μM POST.
The mark [17] stands for this setting: Staphylococcus aureus, pre-exposure, read-out: % Inhibition 400 μM PRE.

In the case of `CC(C)c1ccc2c(c1)CC[C@H]1[C@](C)(C(=O)N[C@@H](CC3CCCCC3)C(=O)O)CCC[C@]21C` [Compound 22, N-(Abiet-8,11,13-trien-18-oyl) Cyclohexyl-L-alanine], the half-maximal inhibitory concentration (IC50) was 48.2 µM with S. aureus Newman (setting [9]); 7.9 µM with S. aureus Newman (setting [10]); 21.9 µg/mL in the data set with S. aureus Newman (setting [11]); 3.6 µg/mL in the data set on S. aureus Newman (setting [12]); 9.4 µM in data set [4] (setting [13]); 4.2 µg/mL in data set [4] (setting [14]). The IC50 in [4] (setting [15]) came to 12.7 µg/mL. Further, the “Inhibition percentage (±SD) Post-biofilm formation” value in [1] is 4.4 (±5.8) %; in data set [5], 1.9 (±5.7) %; in the data set on E. coli XL1 blue it was 14.2 (±13.1) %. Besides, the “Inhibition percentage (±SD) Prior-to-biofilm formation” value is recorded as 42.3 (±9.5) % in data set [1], 48.8 (±4.8) % in data set [5] and 5.2 (±11.3) % in the data set on E. coli XL1 blue. Also, in data set [2], the “Log Reduction (average ±SD)” value is recorded as 2.3 (±0.1). For the same molecule, the membrane depolarization entry in [3] is listed as “caused membrane depolarization”. The results for the inhibition at 400 µM in data set [4] (setting [16]) and in data set [4] (setting [17]) were 99.6% and 100%, respectively. Besides, in data set [4], the “reduction of the viable biofilm cells” value was about 50%. Moreover, in data set [6], the “ATP release from the biofilms” value was “highly significant ATP leakage”. The molecule further yielded an MIC in the data set on single-cell bacteria of 6.8 µg/mL (≈ 15 µM). The “biocompatibility index (BI)” value with HL cells [7] is recorded as “higher than 1”.
With `CC(C)c1ccc2c(c1)CC[C@H]1[C@](C)(C(=O)N[C@H](Cc3c[nH]c4ccccc34)C(=O)O)CCC[C@]21C` [Compound 25, N-(Abiet-8,11,13-trien-18-oyl) D-tryptophan], the viable cells in the data set on HL cells [8] (100 μM) is given as 23%; with HL cells [8] (concentrations up to 30 μM), 90.2%. Further, the IC50 in the data set on S. aureus Newman (setting [9]) turned out to be 71.7 µM; in the data set on S. aureus Newman (setting [10]), 20.9 µM; in the data set on S. aureus Newman (setting [11]) it was 34.9 µg/mL; in the data set on S. aureus Newman (setting [12]), 10.2 µg/mL; in [4] (setting [13]), 33.2 µM; in data set [4] (setting [14]) it was 16.2 µg/mL. For the same molecule, the IC50 in data set [4] (Staphylococcus aureus, ATCC25923, 24 h, measured 24 hours after adding to existing biofilms, read-out: Potency, IC50 Post-biofilm formation) is under 100 µM; in [4] (setting [15]) it was 41.9 µg/mL; in [4] (measured 24 hours after adding to existing biofilms, read-out: Potency, IC50 Post-biofilm formation), 86.1 µM. The results for the “Inhibition percentage (±SD) Post-biofilm formation” value (in data set [1]; in data set [5]; with E. coli XL1 blue) were 48.8 (±10.3) %, 38.0 (±9.3) % and 6.7 (±7.2) %, respectively. Further, the entries for the “Inhibition percentage (±SD) Prior-to-biofilm formation” value (in data set [1]; in [5]; in the data set with E. coli XL1 blue) were 70.3 (±5.6) %, 66.9 (±0.9) % and 8.7 (±5.6) %, respectively. In data set [2], the “Log Reduction (average ±SD)” value is listed as 6.2 (±0.4). The membrane depolarization result in [3] is listed as “caused membrane depolarization”. The inhibition at 400 µM in data set [4] (setting [16]) and in [4] (setting [17]) was 102% each time. For the same molecule, in data set [4], the “reduction of the viable biofilm cells” value is recorded as about 50%. In data set [6], the “ATP release from the biofilms” value is on record as “highly significant ATP leakage”. Further, the MIC against single-cell bacteria stood at 29.3 µg/mL (≈ 60.2 µM).
For the molecule `CC(C)c1ccc2c(c1)CC[C@H]1[C@](C)(CN)CCC[C@]21C` [dehydroabietylamine], the “prevention of S. aureus biofilm formation” value in the data set with S. aureus biofilm is on record as “low micromolar range”.
